Results reported in US8722714B2, “Oxazolidine derivatives as NMDA antagonists” (The Honk Kong University of Science and Technology, priority 2008, dated 2014).

Legend:
[1] = test system: rat primary cortical neurons; assay: Neuron survival assay against NMDA insult (LDH release); format: cell-based; conditions: NMDA 20 μM; for protection of rat primary cortical neurons from NMDA insults (LDH release, fold change vs DMSO): compounds 10-30 μg/ml, 11 DIV; for cell death (LDH release, cell cytotoxicity vs DMSO): compound 10 μg/mL, DIV 11
Experimental: Primary cortical and hippocampal neurons were prepared from embryonic day 18 (E18) Sprague-Dawley rats. Neurons were plated on 24-well plate (TPP, Corning) at a density of 2×10^5 cells per well using Neurobasal medium (Invitrogen) supplemented with 2% B27 (Invitrogen). Neurons at 11-12 days in vitro (12 DIV) were subjected to drug treatment. Neurons were pretreated with the test compound for 2 hours prior to NMDA treatment. 0.1 μM (+)-MK-801 Hydrogen Maleate (Sigma) was added as a positive control. Briefly, the neurons were rinsed with Locke's solution (5 mM potassium chloride, 128 mM sodium chloride, 2.7 mM calcium chloride, 1 mM di-sodium hydrogen orthophosphate, 5 mM HEPES and 10 mM glucose in Milli-Q water) without Mg^2+, and incubated with addition of glycine (10 μM) for 15 minutes. After the incubation, the neurons were co-treated with the test compound (dissolved in Locke's plus glycine solution) and NMDA (20 μM; Sigma) for 20 minutes. Neurons were rinsed with Locke's plus Mg^2+ and replaced with fresh growth medium. The cell death was assayed and quantified using the lactate dehydrogenase release assay (Roche) after 24 hours.
Embryonic rat cortical neurons (11 DIV) were treated with NMDA (20 μM) in the absence or presence of the LC series of compounds (10-30 μg/ml). […] LDH release in the medium after overnight incubation was measured and fold change was calculated when compared to the solvent control, DMSO.
Embryonic rat cortical neurons (DIV 11) were treated with NMDA (20 μM) in the absence or presence of LC-01 or LC-02 (μg/mL). LDH release in the medium after overnight incubation was measured and cell cytotoxicity was calculated in percentage when compared to the solvent control, DMSO.
Embryonic rat cortical neurons (DIV 11) were treated with NMDA (20 μM) in the absence or presence of LC-06 (μg/mL). LDH release in the medium after overnight incubation was measured and cell cytotoxicity was calculated in percentage when compared to the solvent control, DMSO.
Embryonic rat cortical neurons (11 DIV) were treated with NMDA (20 μM) in the absence or presence of LC-24 or LC-25 (μg/mL). LDH release in the medium after overnight incubation was measured and cell cytotoxicity was calculated in percentage when compared to solvent control (DMSO).

[2] = test system: NMDA receptor; assay: Whole-cell patch clamp of NMDA-induced current in hippocampal neurons; format: cell-based, rat; conditions: for pooled NMDA current responses (normalized peak and plateau currents) / recovery of NMDA-induced current after compound was washed out: compound 500 uM co-applied with NMDA 200 uM; for pooled NMDA current responses (normalized peak and plateau currents): vs DMSO, n=6; for recovery of NMDA-induced current after compound was washed out: single hippocampal neuron
Experimental: Hippocampal neurons were prepared from embryonic day 18 Sprague-Dawley rats. After the hippocampus had been removed from the brain, isolated cells were plated onto Poly d-Lysine (PDL) (P0899, Sigma)-coated 35 mm dishes (153066, NUNC) at a density of 3×10^5 cell per plate using Neurobasal Medium (NB) (21103-049, Gibco) with B27 supplement (17504-044, Gibco), penicillin/streptomycin (15140, Gibco) and 1 mM L-glutamine (25030, Gibco). The cell culture was incubated at 37° C. in a humidified atmosphere of 5% CO2 in air. Half of the medium was changed with NB, B27 and 50 μM L-glutamine every 2 to 3 days. On day 12 in vitro (12 DIV), whole-cell patch clamp was performed. The internal solution contained 120 mM cesium chloride, 20 mM tetraethylammonium chloride, 2 mM magnesium chloride, 1 mM calcium chloride and 10 mM HEPES (pH 7.2). The external solution contained 137 mM sodium chloride, 1 mM sodium bicarbonate, 0.34 mM sodium phosphate dibasic, 5.37 mM potassium chloride, 0.44 mM potassium phosphate monobasic, 2.5 mM HEPES (pH 7.4) and 22.2 mM glucose. Samples mixed with 50 μM NMDA (M3262, Sigma) were arranged in linear array of up to 8 individual controlled pipes (List Medical, Germany) which were connected to solution reservoirs. Memantine (10 μM, M9292, Sigma) was used as a positive control. Pipettes were fire-polished to produce a pipette resistance of 3-5 MΩ. Holding potential of patched cells was kept at −80 mV and currents were recorded using Axopatch-200B amplifier (Axon Instruments, USA). Tetrodotoxin (5 μM) and bicuculline methiodide (20 μM) (0109, Tocris) were present in the bath solution to block synaptic transmission mediated by voltage-gated sodium channels and […], respectively. Data was analyzed by pClamp9 software and percentage of inhibition on NMDA-induced current was represented in comparison to solvent control.
The NMDA receptor is a gated ion channel, which allows inflow of current during a nerve impulse. Antagonists to the receptor would prevent the inflow of current.
In FIG. 1A, hippocampal neurons from embryonic day 18 rats were isolated, trypsinized, plated onto 35-mm plates at a density of 3×10^4 cells/plate and cultured in Neurobasal medium (NB) supplemented with B27 nutrient. Rat hippocampal neurons (10-14 DIV) were treated with NMDA (50 μM) in the absence or presence of the compound LC-02 (10 μg/mL). Data is presented as % of NMDA-induced current. DMSO is the solvent control.
(§1) In FIG. 1B, NMDA antagonistic effect of LC-02 on current responses of a single hippocampal neuron. NMDA (200 uM) was applied for 2.5 sec every 30 sec but these inter-response intervals have been deleted from the above figure for a better resolution of the kinetics of individual responses (blank space in trace). LC-02 (500 uM) was co-applied with NMDA.
In FIG. 1C, effects of LC-02 on pooled NMDA current responses. Normalized peak and plateau currents are shown in the absence (DMSO) and presence of LC-02.
as §1, with “8, (a)” for “1B,”, “LC-06” for “LC-02”, “NMDA. […] (b) Effects of LC-06 on pooled NMDA current responses. Normalized peak and plateau currents are shown in the absence (DMSO) and presence of LC-06.” for “NMDA.”
as §1, with “9, (a)” for “1B,”, “LC-24” for “LC-02”, “NMDA. […] (b) Effects of LC-24 on pooled NMDA current responses. Normalized peak and plateau currents are shown in the absence (DMSO) and presence of LC-24. […]” for “NMDA.”

Row | SMILES | protection of rat primary cortical neurons from NMDA insults (LDH release, fold change vs DMSO) [1] | cell death (LDH release, cell cytotoxicity vs DMSO) [1] | NMDA induced current in hippocampal neurons ([2]; compound 10 μg/mL with NMDA 50 μM, rat hippocampal neurons 10-14 DIV) | pooled NMDA current responses (normalized peak and plateau currents) [2] | recovery of NMDA-induced current after compound was washed out [2]
1 | CC[C@H]1N[C@@H](CC(C)C)C(CC)(CC)O1 [LC-02] | significantly protected | cell death was markedly reduced | decreases in NMDA induced current | significantly inhibits NMDA-induced current | Partial recovery of NMDA-induced current
2 | CCCC1(CCC)O[C@@H](CC)N[C@H]1CC(C)C [LC-06] | significantly protected | cell death was markedly reduced |  | significantly inhibits NMDA-induced current | Partial recovery of NMDA-induced current
3 | CC[C@H]1N[C@@H](Cc2ccccc2)C(CC)(CC)O1 [LC-24] | significantly protected | cell death was markedly reduced |  | significantly inhibits NMDA-induced current | Partial recovery of NMDA-induced current
